Results taken from paper PMC7827648 (Molecules, 2021).
Where “and” joins values, the source holds several entries; their conditions need not be identical. Identical values can stand only once. Like-named read-outs stand apart in the source and are kept apart here.

Assays:
[1] = test system: RD (rhabdomyosarcoma) cells; assay: Cytotoxicity, MTT assay, RD cells; type: cell-based; conditions: Homo sapiens, read-out: IC50, 50% inhibition of the cell population growth, 72 h, mean ± SD
Protocol: (§1) The cytotoxicity of the newly synthesized Schiff bases was evaluated in vitro in a panel of cultured tumor cells, assessing cell viability at scalar concentrations of the test compounds (≤500 μM) by MTT (i.e., 3-(4,5-dimethylthiazol-2-yl)-2,5-diphenyltetrazolium bromide) and Alamar Blue assays, using doxorubicin as the positive controls. Most of the compounds were tested against RD (rhabdomyosarcoma), HCT116 (intestinal carcinoma), HeLa (adenocarcinoma of the cervix uterus) and A549 (lung adenocarcinoma) cell lines, whereas five representative compounds of the subsets were tested also against K562 (chronic myelogenous leukemia) tumor cells.
(§2) The experiments were carried out in triplicate.

[2] = test system: HCT116 (intestinal carcinoma) cells; assay: Cytotoxicity, MTT assay, HCT116 cells; type: cell-based; conditions: Homo sapiens, HCT-116, read-out: IC50, 50% inhibition of the cell population growth, 72 h, mean ± SD
Protocol: as §1, §2

[3] = test system: HeLa (adenocarcinoma of the cervix uterus) cells; assay: Cytotoxicity, MTT assay, HeLa cells; type: cell-based; conditions: Homo sapiens, read-out: IC50, 50% inhibition of the cell population growth, 72 h, mean ± SD
Protocol: as §1, §2

[4] = test system: A549 (lung adenocarcinoma) cells; assay: Cytotoxicity, MTT assay, A549 cells; type: cell-based; conditions: Homo sapiens, read-out: IC50, 50% inhibition of the cell population growth, 72 h, mean ± SD
Protocol: as §1, §2

[5] = target: human acetylcholinesterase (AChE) (Homo sapiens, UniProt P22303); assay: biochemical; conditions: for IC50: human recombinant AChE, pH 8.0, mean ± SD (n = 3), read-out: IC50 hAChE; for inhibition mechanism on hAChE: Michaelis-Menten / Lineweaver-Burk plots; for Ki: complete kinetics, human AChE, read-out: inhibition constant (Ki) hAChE
human acetylcholinesterase (AChE), sequence (P22303 32-614): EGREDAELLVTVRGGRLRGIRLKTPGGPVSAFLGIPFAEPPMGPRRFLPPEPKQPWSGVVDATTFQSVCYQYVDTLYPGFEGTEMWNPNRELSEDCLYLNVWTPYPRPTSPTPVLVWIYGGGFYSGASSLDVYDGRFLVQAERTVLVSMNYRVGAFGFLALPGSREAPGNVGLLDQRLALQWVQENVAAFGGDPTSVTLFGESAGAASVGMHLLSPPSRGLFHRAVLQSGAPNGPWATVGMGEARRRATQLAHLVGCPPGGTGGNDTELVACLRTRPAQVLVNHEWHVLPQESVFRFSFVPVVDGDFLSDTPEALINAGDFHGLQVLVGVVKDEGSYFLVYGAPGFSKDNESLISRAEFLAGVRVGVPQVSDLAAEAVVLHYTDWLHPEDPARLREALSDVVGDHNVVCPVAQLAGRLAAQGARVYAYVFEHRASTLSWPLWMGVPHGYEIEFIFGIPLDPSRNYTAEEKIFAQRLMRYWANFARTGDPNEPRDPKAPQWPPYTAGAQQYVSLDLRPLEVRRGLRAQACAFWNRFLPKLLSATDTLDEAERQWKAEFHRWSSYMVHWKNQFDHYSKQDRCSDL
Protocol: (§3) The ChE inhibition assay was carried out using the Ellman’s spectrophotometric method [23], as applied to the 96-well plate technique [24] on a Tecan Infinite M1000 Pro instrument (Cernusco s.N., Italy).

[6] = target: T1, human butyrylcholinesterase (BChE) (Homo sapiens, UniProt P06276); assay: BChE inhibition, Ellman's method; type: biochemical; conditions: mean ± SD (n = 3), n.i. = no inhibition; for inhibition at 10 µM: read-out: % inhibition hBChE; for % inhibition hBChE: at 10 μM
T1 construct: BChE from human serum (50 U/mg); from tissue; host or cells: human serum
T1 sequence (P06276 29-602): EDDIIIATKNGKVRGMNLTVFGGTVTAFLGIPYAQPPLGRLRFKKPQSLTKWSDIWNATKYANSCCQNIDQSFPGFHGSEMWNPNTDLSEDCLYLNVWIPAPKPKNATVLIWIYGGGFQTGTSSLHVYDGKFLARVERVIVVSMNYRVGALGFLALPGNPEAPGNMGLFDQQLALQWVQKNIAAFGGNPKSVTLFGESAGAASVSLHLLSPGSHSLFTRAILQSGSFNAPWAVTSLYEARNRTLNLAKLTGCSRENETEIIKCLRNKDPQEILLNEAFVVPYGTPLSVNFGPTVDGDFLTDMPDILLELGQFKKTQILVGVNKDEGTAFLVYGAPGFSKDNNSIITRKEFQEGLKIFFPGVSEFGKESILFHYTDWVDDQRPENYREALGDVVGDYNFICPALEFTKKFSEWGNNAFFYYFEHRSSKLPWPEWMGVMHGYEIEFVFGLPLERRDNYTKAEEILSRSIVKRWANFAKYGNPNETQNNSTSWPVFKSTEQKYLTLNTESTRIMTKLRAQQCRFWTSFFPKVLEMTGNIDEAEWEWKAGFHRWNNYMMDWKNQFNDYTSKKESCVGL
Protocol: as §3

[7] = target: T2, β-amyloid (Aβ)1–40 self-aggregation (Homo sapiens, UniProt P05067); assay: Inhibition of self-induced Aβ40 aggregation, thioflavin T fluorescence; type: biochemical; conditions: for IC50: PBS pH 7.4, 2 h
T2 construct: self-aggregation of Aβ peptides 1–40 (Aβ40)
T2 sequence (P05067 672-711 limits assumed): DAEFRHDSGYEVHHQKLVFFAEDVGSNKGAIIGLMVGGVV
Protocol: Molecules able to inhibit simultaneously AChE and β-amyloid (Aβ) aggregation/neurotoxicity may have potential as drugs for the treatment of AD [14]. Herein, the new DHPPIQ derivatives were evaluated for the inhibitory effects on the self-aggregation of Aβ peptides 1–40 (Aβ40), through a test based on the measurement of thioflavin T (ThT) fluorescence. Quercetin, which is a strong inhibitor of in vitro Aβ self-aggregation, was used as a positive control.
Each compound was initially tested at a 100-μM concentration. […] […].
According to an already reported 96-well plate procedure, the test compounds at 100 μM were incubated with Aβ40 (30 μM) and 2% HFIP (1,1,1,3,3,3-hexafluoro-2-propanol), used as aggregation enhancer in PBS pH 7.4 for 2 h at room temperature. After the addition of ThT, the fluorescence was read at the 440/485 nm excitation/emission wavelength. Experiments were performed in triplicate, and the % inhibition values calculated as mean ± SD.

human MAO A = target: T3, human MAO A (Homo sapiens, UniProt P21397); assay: biochemical; conditions: for IC50: human recombinant MAO A, kynuramine, read-out: IC50 hMAO A; for inhibition at 10 µM: read-out: % inhibition hMAO A
T3 construct: host or cells: baculovirus-infected insect cells (microsomes)
T3 sequence (P21397 1-527): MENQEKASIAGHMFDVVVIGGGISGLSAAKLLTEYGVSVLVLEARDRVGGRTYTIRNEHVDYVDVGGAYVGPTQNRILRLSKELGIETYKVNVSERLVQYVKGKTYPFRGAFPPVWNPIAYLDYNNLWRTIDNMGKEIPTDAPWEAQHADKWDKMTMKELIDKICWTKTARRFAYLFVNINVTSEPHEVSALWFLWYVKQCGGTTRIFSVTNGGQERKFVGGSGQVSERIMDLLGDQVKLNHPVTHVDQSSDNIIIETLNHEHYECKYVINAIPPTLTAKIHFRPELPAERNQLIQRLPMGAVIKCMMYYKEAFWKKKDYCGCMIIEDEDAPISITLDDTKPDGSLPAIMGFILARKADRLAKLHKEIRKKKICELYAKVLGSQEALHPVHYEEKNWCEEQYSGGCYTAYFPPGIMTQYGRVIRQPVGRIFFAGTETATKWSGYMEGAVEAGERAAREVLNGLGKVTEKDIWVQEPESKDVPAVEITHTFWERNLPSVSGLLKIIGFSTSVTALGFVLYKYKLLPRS
Protocol: (§4) The inhibition of human recombinant MAO A (250 U/mg) and B (59 U/mg; microsomes from baculovirus-infected insect cells) was evaluated using the reported 96-well plate technique [12]. on a Tecan Infinite M1000 Pro instrument (Cernusco s.N., Italy). […] After addition of the enzyme and 30 min of incubation, NaOH was added and the fluorescence read at the 310/400 excitation/emission wavelength.

human MAO B = target: T4, human MAO B (Homo sapiens, UniProt P27338); assay: biochemical; conditions: for inhibition at 10 µM: mean ± SD (n = 3), read-out: % inhibition hMAO B
T4 construct: host or cells: baculovirus-infected insect cells (microsomes)
T4 sequence (P27338 1-520): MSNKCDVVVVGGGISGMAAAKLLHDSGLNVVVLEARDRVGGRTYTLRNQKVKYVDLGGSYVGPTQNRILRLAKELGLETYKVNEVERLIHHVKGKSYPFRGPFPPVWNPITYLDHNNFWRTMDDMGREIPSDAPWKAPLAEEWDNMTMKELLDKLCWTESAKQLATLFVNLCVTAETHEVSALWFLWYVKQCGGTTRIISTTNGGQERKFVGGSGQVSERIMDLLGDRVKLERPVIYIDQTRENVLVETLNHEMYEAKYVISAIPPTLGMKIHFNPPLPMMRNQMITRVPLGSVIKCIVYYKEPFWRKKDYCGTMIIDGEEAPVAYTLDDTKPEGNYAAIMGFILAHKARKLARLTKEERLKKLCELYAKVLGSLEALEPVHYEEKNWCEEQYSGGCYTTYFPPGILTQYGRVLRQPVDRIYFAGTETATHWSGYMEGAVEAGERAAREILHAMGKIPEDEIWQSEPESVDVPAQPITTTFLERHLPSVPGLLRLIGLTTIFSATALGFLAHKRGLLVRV
Protocol: as §4

in vitro = conditions: human
[8] = test system: K562 (chronic myelogenous leukemia) cells; assay: Cytotoxicity, Alamar Blue (resazurin) assay, K562 cells; type: cell-based; conditions: Homo sapiens, read-out: IC50, 50% inhibition of the cell population growth, 72 h, mean ± SD
Protocol: as §1, §2

[9] = Aβ40 30 μM, 2% HFIP, ThT, mean ± SD (n = 3)

Compound: CCOc1ccc(-c2c(/C=N/c3ccc(/N=C/c4cn5c(c4-c4ccc(OCC)c(OCC)c4)-c4cc(OCC)c(OCC)cc4CC5)cc3)cn3c2-c2cc(OCC)c(OCC)cc2CC3)cc1OCC [Compound 13a, (1E,1’E)-N,N’-(1,4-phenylene)bis(1-(1-[3,4-diethoxyphenyl]-8,9-diethoxy-5,6-dihydropyrrolo[2,1-a]isoquinolin-2-yl)methanimine)-1,4-diaminium dichloride]
- IC50 [1]: 390 ± 19 µM
- IC50 [2]: 103 ± 8 µM
- IC50 [3]: 205 ± 10 µM
- IC50 [4]: 240 ± 18 µM
- IC50 [5]: 13 µM and 13.1 µM
- inhibition at 10 µM [6]: 11 ± 3%
- IC50 [7, 9]: 42 ± 3 µM
- IC50 (human MAO A; mean ± SD (n = 3)): 12.3 ± 1.1 µM
- inhibition at 10 µM (human MAO B): 31 ± 3%
- IC50 at 72 h (in vitro): 101 ± 6 µM

Compound: CCOc1ccc(-c2c(/C=N/N=C/c3cn4c(c3-c3ccc(OCC)c(OCC)c3)-c3cc(OCC)c(OCC)cc3CC4)cn3c2-c2cc(OCC)c(OCC)cc2CC3)cc1OCC [Compound 18, (1E,2E)-1,2-bis((1-[3,4-diethoxyphenyl]-8,9-diethoxy-5,6-dihydropyrrolo[2,1-a]isoquinolin-2-yl)methylene)hydrazine]
- IC50 [2]: > 500 µM
- IC50 [3]: 302 ± 23 µM
- melting point: 230 to 232 °C

Compound: CCOc1ccc(-c2c(/C=N/c3ccc(OC)cc3)c(-c3ccccc3)n3c2-c2cc(OCC)c(OCC)cc2CC3)cc1OCC [Compound 8, (E)-1-(1-(3,4-diethoxyphenyl)-8,9-diethoxy-3-phenyl-5,6-dihydropyrrolo[2,1-a]isoquinolin-2-yl)-N-(4-methoxyphenyl)methanimine]
- IC50 [1]: 412 ± 20 µM
- IC50 [2]: 286 ± 5 µM
- IC50 [3]: 304 ± 10 µM
- melting point: 93 to 95 °C

Compound: COc1cc2c(cc1OC)-c1c(-c3ccc(Cl)cc3)c(/C=N/c3ccc(/N=C/c4cn5c(c4-c4ccc(Cl)cc4)-c4cc(OC)c(OC)cc4CC5)cc3)cn1CC2 [Compound 14, (1E,1’E)-N,N’-(1,4-phenylene)bis(1-(1-[4-chlorophenyl]-8,9-dimethoxy-5,6-dihydropyrrolo[2,1-a]isoquinolin-2-yl)methanimine)]
- IC50 [1]: 269 ± 11 µM
- IC50 [2]: 390 ± 16 µM
- IC50 [3]: 310 ± 12 µM
- IC50 [4]: > 500 µM
- hAChE potency relative to the reference compound galantamine ([5]; 14 vs galantamine): tenfold less potent
- inhibition mechanism on hAChE [5]: noncompetitive/mixed-type inhibition mechanism
- Ki [5]: 4.69 µM
- IC50 [5]: 7.3 ± 0.74 µM
- inhibition at 10 µM [6]: 13 ± 1%
- IC50 [7, 9]: 13 ± 1 µM
- fold stronger inhibition of Aβ40 aggregation than the respective mono-DHPPIQ Schiff base 9 ([7]; ratio of IC50 values, 14 vs 9): 3.5 fold
- IC50 (human MAO A; mean ± SD (n = 3)): 12.1 ± 2.3 µM
- inhibition at 10 µM (human MAO B): 19 ± 5%
- IC50 at 72 h (in vitro): 29.3 ± 0.1 µM

Compound: COc1ccc(/N=C/c2cn3c(c2-c2ccc(F)cc2)-c2cc(OC)c(OC)cc2CC3)cc1 [Compound 11, (E)-1-(1-(4-fluorophenyl)-8,9-dimethoxy-5,6-dihydropyrrolo[2,1-a]isoquinolin-2-yl)-N-(4-methoxyphenyl)methanimine]
- IC50 [1]: 145 ± 1 µM
- IC50 [2]: 114 ± 4 µM
- IC50 [3]: 87.2 ± 1.1 µM
- IC50 [4]: 153 ± 2.2 µM
- inhibition at 10 µM ([5]; at 10 μM, mean ± SD (n = 3), read-out: % inhibition hAChE): 40 ± 2%
- % inhibition hBChE [6]: n.i.
- IC50 [7, 9]: 54 ± 2.2 µM
- IC50 (human MAO A; mean ± SD (n = 3)): 18.1 ± 1.2 µM
- inhibition at 10 µM (human MAO B): 22 ± 4%
- IC50 at 72 h (in vitro; SH-SY5Y neuroblastoma cells): 56.1 ± 2.4 µM

Compound: COc1ccc(/N=C/c2c(-c3ccc(F)cc3)c3n(c2-c2ccccc2)CCc2cc(OC)c(OC)cc2-3)cc1 [Compound 12, (E)-1-(1-(4-fluorophenyl)-8,9-dimethoxy-3-phenyl-5,6-dihydropyrrolo[2,1-a]isoquinolin-2-yl)-N-(4-methoxyphenyl)methanimine]
- IC50 [1]: > 500 µM
- IC50 [2]: 148 ± 14 µM
- IC50 [3]: 450 ± 19 µM
- IC50 [4]: > 500 µM
- melting point: 195 to 197 °C

Compound: COc1ccc(/N=C/c2cn3c(c2-c2ccc(Cl)cc2)-c2cc(OC)c(OC)cc2CC3)cc1 [Compound 9, (E)-1-(1-(4-chlorophenyl)-8,9-dimethoxy-5,6-dihydropyrrolo[2,1-a]isoquinolin-2-yl)-N-(4-methoxyphenyl)methanimine]
- IC50 [1]: 76.4 ± 4.7 µM
- IC50 [2]: 37.2 ± 2.4 µM
- IC50 [3]: 35.2 ± 0.7 µM
- IC50 [4]: 99.4 ± 1.1 µM
- IC50 [8]: 105 ± 8 µM
- IC50 [5]: 29.3 ± 2.3 µM
- inhibition at 10 µM [6]: 13 ± 4%
- IC50 [7, 9]: 46 ± 5 µM
- inhibition at 10 µM (human MAO A; at 10 μM, mean ± SD (n = 3)): 39 ± 2%
- inhibition at 10 µM (human MAO B): 29 ± 5%
- IC50 at 72 h (in vitro; SH-SY5Y neuroblastoma cells): 22.1 ± 0.8 µM

Compound: CCOc1ccc(-c2c(CN(C)CCNC)cn3c2-c2cc(OCC)c(OCC)cc2CC3)cc1OCC.O=C(O)/C=C/C(=O)O [Compound 17a, 2-(([1-(3,4-diethoxyphenyl]-8,9-diethoxy-5,6-dihydropyrrolo[2,1-a]isoquinolin-2-yl)methyl)(methyl)amino)-N-methylethan-1-aminium (E)-3-carboxyacrylate]
- IC50 [1]: 10.1 ± 0.1 µM
- IC50 [2]: 18.6 ± 0.4 µM
- IC50 [3]: 29.7 ± 0.9 µM
- IC50 [4]: 35.9 ± 2.4 µM
- IC50 [8]: 46.6 ± 1.5 µM
- inhibition mechanism on hAChE [5]: noncompetitive/mixed-type inhibition mechanism
- Ki [5]: 13.6 ± 0.1 µM
- IC50 [5]: 16 µM and 16.4 µM
- % inhibition hBChE [6]: n.i.
- inhibition at 100 µM ([7]; at 100 μM, Aβ40 30 μM, 2% HFIP, ThT, mean ± SD (n = 3)): 31 ± 3%
- inhibition at 10 µM (human MAO A): 38 ± 5%
- IC50 (human MAO B): 14.3 ± 1.4 µM
- IC50 at 72 h (in vitro; SH-SY5Y neuroblastoma cells): 17.9 ± 0.1 µM
